Laboratory results as given in patent US20260207722A1, “COMBINATION FOR TREATMENT OF AUTOIMMUNE DISEASES” (Bonsai Biotherapeutics AB, priority 2023, published 2026).

System: experimental autoimmune myasthenia gravis (EAMG)
Experiment: EAMG clinical score, rats treated with TOL2 and/or diclofenac (Example 2)
Type: in vivo, rat
Details: treatment 40 days after EAMG induction; diclofenac 10 mg/kg ip; TOL2 500 μg iv alone, 250 μg iv in the combination; vs PBS-treated controls; FIG. 3A

O=C(O)Cc1ccccc1Nc1c(Cl)cccc1Cl [diclofenac]
EAMG score: did not show any improvement
